{"source": "PubChem BioAssay AID2060623", "about": "(Molecular Pharmacology Branch, DTP, NCI, 2025);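 also: spheroids exposed to compounds for seven days before readout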;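 as to viability, T/C: percent of DMSO vehicle control luminescence as 100% viability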", "tested_on": "227483-062-R1-J1-PDC complex spheroids with HUVEC/MSC, viability", "assay": "Anticancer human tumor 227483-062-R1-J1-PDC patient-derived pancreatic carcinoma cell line growth inhibition [CLK]", "conditions": "for IC50: curve of first compound; for viability, T/C: stronger effect = lower value", "source_text": "A high-throughput screen of multi-cell type tumor spheroids was designed to identify active combinations of […] and targeted small molecules. Complex spheroids include a stromal component modeled by human endothelial cells (HUVEC) and fibroblasts modeled by human mesenchymal stem cells (MSCs). The concentration ranges selected for each drug and investigational agent were based upon clinically achievable concentrations if the clinical Cmax of the agent was known.\nCompounds. The drugs and investigational agents: cirtuvivint (SM08502; NSC835563), CC-671 (NSC850746), vemurafenib (NSC761431), tapotoclax (NSC804041), sotorasib (NSC818433), adagrasib (NSC831453), MRTX-1133 (NSC836407), BAY2416964 (NSC825713), copanlisib (NSC816437), inavolisib (NSC800729), abemaciclib (NSC768073), osimertinib (NSC779217), entinostat (NSC756642), eltanexor (KPT-8602, NSC794443), venetoclax (NSC766270), ceralasertib (NSC777638), bortezomib (NSC756655), olaparib (NSC753686), talazoparib (NSC767125), alisertib (NSC759677), peposertib (NSC802822), gemcitabine (NSC613327), 5-fluorouracil (NSC19893), SN-38 (NSC673596), oxaliplatin (NSC266046), paclitaxel (NSC125973), and doxorubicin (NSC123127), were obtained from the National Cancer Institute (NCI) Developmental Therapeutics Program Chemical Repository. The FDA-approved anticancer drug set is available from the Developmental Therapeutics Program at https://dtp.cancer.gov/organization/dscb/obtaining/available plates.htm. […] The stock solutions were prepared in dimethyl sulfoxide (DMSO, Sigma-Aldrich, St. Louis, MO, cat. D2650), except for the platinum complexes which were prepared in saline (Quality Biological, Gaithersburg, MD, cat. 114-055-101), at 800-fold the tested concentration and stored at -70 degrees C prior to their use. All drugs and investigational agents were tested over a range starting from a high concentration at or near the clinical Cmax and decreasing in half-log increments. If the clinical Cmax for an agent had not been determined, the highest concentration tested was 10 microM.\nCell Culture. All cells were maintained in an incubator at 37 degrees C and 5% CO2 with 95% humidity. The PDC lines were cultured according to standard operating procedures established by the NCI PDMR. Briefly, all PDCs were thawed and cultured in Matrigel-coated flasks prepared with a working solution of 1X Ham's F-12 nutrient mix, without supplementation (Invitrogen, Waltham, MA, cat. 11765054), 100 U/mL penicillin-streptomycin (Invitrogen, cat. 15140122), and 2.5% Matrigel (Corning Inc., Corning, NY, cat. 354248) for the first three passages. The 947758-054-R-J2-PDC line was cultured in 6B/Colon 1A media, which includes advanced DMEM/F-12 (Thermo Fisher Scientific, cat. 12634028), 10 mM HEPES (Thermo Fisher Scientific, cat. 15630080), 1X GlutaMAX supplement (Thermo Fisher Scientific, cat. 35050061), 0.1 mg/mL primocin (InvivoGen, cat. ant-pm-2), 10% defined fetal bovine serum, heat inactivated (HyClone Laboratories Inc., cat. SH30070.03HI), 1.25 mM N-Acetyl-L-cysteine (Sigma-Aldrich, cat. A9165), 10 mM nicotinamide (Sigma-Aldrich, cat. N0636), 1X B-27 supplement (Thermo Fisher Scientific, cat. 17504044), 1X N-2 supplement (Thermo Fisher Scientific, cat. 17502048), and 10 microM Y-27632 dihydrochloride (Tocris Bioscience, cat. 1254). The 876862-298-R-J1-PDC was cultured in 6E media, which includes all 6B/Colon 1A media components plus 50% L-WRN conditioned media (ATCC, cat. CRL-3276), 50 ng/mL recombinant human EGF recombinant protein (hEGF; Thermo Fisher Scientific, cat. PHG0311), 10 ng/mL recombinant human fibroblast growth factor 10 (hGFG-10; PeproTech, cat. 100-26), 1 ng/mL recombinant human fibroblast growth factor 2 (hFGF-2; PeproTech, cat. 100-18B), and 1 µM prostaglandin E2 (PGE2; Tocris, cat. 2296). The 227483-062-R1-J1-PDC line was cultured in Panc media, containing all 6E components except hFGF-2, with the addition of 500 nM SB-431542 (Selleckchem, cat. S1067) and 10 nM gastrin (Tocris, cat. 3006). […]"}
{"smiles": "COc1c(OCCCN2CCOCC2)ccc2c3n(c(=NC(=O)c4cnc(N)nc4)nc12)CCN3", "note": "+ CN1CCN(c2cc(C(=O)Nc3cc4cc(-c5cnn(C)c5)ccc4cn3)ccn2)CC1", "values": [{"measurement": "IC50", "setting": "second compound 0.0316 µM", "result": 194, "unit": "nM"}, {"measurement": "IC50", "setting": "second compound 0.1 µM", "result": 25, "unit": "nM"}, {"measurement": "IC50", "setting": "second compound 0.316 µM", "result": "< 3.16", "unit": "nM"}, {"measurement": "IC50", "setting": "second compound 1 µM", "result": "< 3.16", "unit": "nM"}, {"measurement": "IC50", "setting": "second compound 3.16 µM", "result": "< 3.16", "unit": "nM"}, {"measurement": "IC50", "setting": "second compound 10 µM", "result": "< 3.16", "unit": "nM"}, {"measurement": "viability, T/C", "setting": "second compound 0.0316 µM, first compound 0.00316 µM", "result": 114, "unit": "%"}, {"measurement": "viability, T/C", "setting": "second compound 0.0316 µM, first compound 0.01 µM", "result": 96.6, "unit": "%"}, {"measurement": "viability, T/C", "setting": "second compound 0.0316 µM, first compound 0.0316 µM", "result": 74.2, "unit": "%"}, {"measurement": "viability, T/C", "setting": "second compound 0.0316 µM, first compound 0.1 µM", "result": 60.9, "unit": "%"}, {"measurement": "viability, T/C", "setting": "second compound 0.0316 µM, first compound 0.316 µM", "result": 43.3, "unit": "%"}, {"measurement": "viability, T/C", "setting": "second compound 0.0316 µM, first compound 1 µM", "result": 27.8, "unit": "%"}, {"measurement": "viability, T/C", "setting": "second compound 0.1 µM, first compound 0.00316 µM", "result": 60.1, "unit": "%"}, {"measurement": "viability, T/C", "setting": "second compound 0.1 µM, first compound 0.01 µM", "result": 65, "unit": "%"}, {"measurement": "viability, T/C", "setting": "second compound 0.1 µM, first compound 0.0316 µM", "result": 41, "unit": "%"}, {"measurement": "viability, T/C", "setting": "second compound 0.1 µM, first compound 0.1 µM", "result": 38.8, "unit": "%"}, {"measurement": "viability, T/C", "setting": "second compound 0.1 µM, first compound 0.316 µM", "result": 23.2, "unit": "%"}, {"measurement": "viability, T/C", "setting": "second compound 0.1 µM, first compound 1 µM", "result": 16.7, "unit": "%"}, {"measurement": "viability, T/C", "setting": "second compound 0.316 µM, first compound 0.00316 µM", "result": 6.51, "unit": "%"}, {"measurement": "viability, T/C", "setting": "second compound 0.316 µM, first compound 0.01 µM", "result": 6.64, "unit": "%"}, {"measurement": "viability, T/C", "setting": "second compound 0.316 µM, first compound 0.0316 µM", "result": 5.96, "unit": "%"}, {"measurement": "viability, T/C", "setting": "second compound 0.316 µM, first compound 0.1 µM", "result": 6.61, "unit": "%"}, {"measurement": "viability, T/C", "setting": "second compound 0.316 µM, first compound 0.316 µM", "result": 5.11, "unit": "%"}, {"measurement": "viability, T/C", "setting": "second compound 0.316 µM, first compound 1 µM", "result": 4.05, "unit": "%"}, {"measurement": "viability, T/C", "setting": "second compound 1 µM, first compound 0.00316 µM", "result": 3.87, "unit": "%"}, {"measurement": "viability, T/C", "setting": "second compound 1 µM, first compound 0.01 µM", "result": 1.44, "unit": "%"}, {"measurement": "viability, T/C", "setting": "second compound 1 µM, first compound 0.0316 µM", "result": 1.35, "unit": "%"}, {"measurement": "viability, T/C", "setting": "second compound 1 µM, first compound 0.1 µM", "result": 1.23, "unit": "%"}, {"measurement": "viability, T/C", "setting": "second compound 1 µM, first compound 0.316 µM", "result": 1.21, "unit": "%"}, {"measurement": "viability, T/C", "setting": "second compound 1 µM, first compound 1 µM", "result": 1.6, "unit": "%"}, {"measurement": "viability, T/C", "setting": "second compound 3.16 µM, first compound 0.00316 µM", "result": 2.64, "unit": "%"}, {"measurement": "viability, T/C", "setting": "second compound 3.16 µM, first compound 0.01 µM", "result": 2.53, "unit": "%"}, {"measurement": "viability, T/C", "setting": "second compound 3.16 µM, first compound 0.0316 µM", "result": 2.97, "unit": "%"}, {"measurement": "viability, T/C", "setting": "second compound 3.16 µM, first compound 0.1 µM", "result": 1.79, "unit": "%"}, {"measurement": "viability, T/C", "setting": "second compound 3.16 µM, first compound 0.316 µM", "result": 1.84, "unit": "%"}, {"measurement": "viability, T/C", "setting": "second compound 3.16 µM, first compound 1 µM", "result": 1.94, "unit": "%"}, {"measurement": "viability, T/C", "setting": "second compound 10 µM, first compound 0.00316 µM", "result": 3.49, "unit": "%"}, {"measurement": "viability, T/C", "setting": "second compound 10 µM, first compound 0.01 µM", "result": 3.33, "unit": "%"}, {"measurement": "viability, T/C", "setting": "second compound 10 µM, first compound 0.0316 µM", "result": 1.42, "unit": "%"}, {"measurement": "viability, T/C", "setting": "second compound 10 µM, first compound 0.1 µM", "result": 1.13, "unit": "%"}, {"measurement": "viability, T/C", "setting": "second compound 10 µM, first compound 0.316 µM", "result": 3.58, "unit": "%"}, {"measurement": "viability, T/C", "setting": "second compound 10 µM, first compound 1 µM", "result": 1.55, "unit": "%"}]}
{"smiles": "CNC(=O)c1ccc(Nc2nc(OC3CCCC3)c3c(-c4ccc5nc(C)oc5c4)c[nH]c3n2)c(OC)c1", "values": [{"measurement": "viability, T/C", "setting": "compound 0.0316 µM", "result": "96.1% [middle of 12 runs]"}, {"measurement": "viability, T/C", "setting": "compound 0.1 µM", "result": "88.2% [middle of 12 runs]"}, {"measurement": "viability, T/C", "setting": "compound 0.316 µM", "result": "85.1% [middle of 12 runs]"}, {"measurement": "viability, T/C", "setting": "compound 1 µM", "result": "61.6% [middle of 11 runs]"}, {"measurement": "viability, T/C", "setting": "compound 3.16 µM", "result": "45.4% [middle of 12 runs]"}, {"measurement": "viability, T/C", "setting": "compound 10 µM", "result": "42.9% [middle of 12 runs]"}]}
